“Also recorded” adds a separate entry of the source. Where two headings read alike, the source gives them in different places.
Experiments:
[1] = biological target: T1, HLA-A2 (Homo sapiens, UniProt P04439, D140Y/D185E/D98H/E176V/E277Q/G131W/G231S/I119V/I121R/I166T/I218V/L300P/L318F/N151K/N90K/P208A/P217A/Q86G/Q94H/R138H/R169H/T345S); type: cell-based; conditions: MV-infected WH cells, HLA-A2 ligands, standard LCMS
[2] = tested on: MB71.5 T cells; assay: PorA specific human proliferation assay with MB71.5 T cells; type: cell-based; conditions: FIG. 17A; region 4 18-mer peptides
Protocol: (§1) For P.69 Pertactin specific human proliferation assays, 10^5 PBMC were incubated in complete medium at 150 µl/well in the absence or presence of the relevant peptide(s), at 1 or 10 μM at 37° C. in a 5% CO2 atmosphere. For PorA specific human proliferation assays, 10^5 PBMC or 2×10^4 MB71.5 T cells were incubated in complete medium at 150 μl/well in the absence or presence of the relevant peptide(s), peptide pool or PorAs rP1.7-2.4, P1.5-2.10, P1.7.16, P1.19.15, or P1.22.14 at the indicated concentrations at 37° C. in a 5% CO2 atmosphere. At day 4, 100-μl volumes were removed for the cytokine determinations. Then 0.5 μCi (18.5 kBq) ^3H-thymidine (Amersham, USA) was added to the culture 18 hours before harvesting the cells. Determination of CPM and calculation of the results were performed as for the proliferation assay of immune splenocytes. Results are expressed as SI±SD from at least triplicate wells. The region 4 specific T cell line MB71.5 was generated by repetitive in vitro restimulation of MB71 PBMC with 0.5 μg/ml rP1.5-2.1 in complete medium.

[3] = tested on: Balb/c and C57black/6 mice; assay: Murine immunization with PorA and splenocyte proliferation assay; type: in vivo, mouse; conditions: splenocytes from Balb/c mice immunized with P1.5-1, 2-2; data not shown
[4] = tested on: PBMC; assay: P.69 Pertactin specific human proliferation assay (in vitro restimulation of PBMC with synthetic peptides); type: cell-based; conditions: PBMC from a panel of healthy adult donors, synthetic standards
Protocol: as §1
We investigated the immunogenicity of the two Bordetella pertussis P.69 Pertactin epitope regions in humans by in vitro restimulation of PBMC from a panel of healthy adult donors with synthetic standards representing the epitopes.

[5] = biological target: T1, HLA-A2; type: cell-based; conditions: human MDDC, HLA-A2 ligandome; from intensity ratio of native and singly labelled epitope
[6] = approach A (subtractive analysis)

With “QLPEATFMV (listed as Measles virus) [SEQ ID NO: 2]” the “Abundance (copies/cell)” value [1, 6] was 1,500 copies/cell.

For LMIDRPYVL [SEQ ID NO: 3], the “Abundance (copies/cell)” value [1, 6] was 150 copies/cell.

In the case of GLASFILTI [SEQ ID NO: 6], the “Abundance (copies/cell)” value ([1]; approach B (isotope labelling)) is reported as 150 copies/cell.

In the case of “PEFSGFSGSVQFVPAQNS [S011-24, synthetic 18-mer, P1.5-2.10 region 4 variant]”, the “Proliferation of MB71.5 T cells with autologous PBMC pulsed with synthetic peptides” value [2] is reported as “proliferated; also recorded: recognizing” and the “Response of splenocytes to region 4 peptides” value [3] is reported as “responded”.

With KLWESPQEI [SEQ ID NO: 4] the “Abundance (copies/cell)” value ([1]; approach B (isotope labelling)) was 85 copies/cell.

For KLWESPQEI [SEQ ID NO: 1], the “Abundance (copies/cell)” value [1, 6] was >100,000 copies/cell and the “Abundance (copies/cell)” value ([1]; approach A (subtractive analysis), listed as MV-C84-92) was > 100,000 copies/cell.

In the case of ASTLWYAESNALSKRLG, the “immune recognition observed in donors” value [4] is reported as “at least 2 donors”.

In the case of “VVSEVDIAKAD (listed as Homo sapiens) [SEQ ID NO: 52]”, the “degree of upregulation due to the influenza virus infection” value [5] is reported as 16.

“SGSVQFVPAQNSKSAYTP [S011-25, synthetic 18-mer, P1.5-2.10 region 4 variant]” was tested, and the “Proliferation of MB71.5 T cells with autologous PBMC pulsed with synthetic peptides” value [2] was “proliferated; also recorded: recognizing” and the “Response of splenocytes to region 4 peptides” value [3] was “responded”.

From patent US20110186731A1, “LCMS TECHNOLOGY AND ITS USES” (priority 2008, published 2011)
